Laboratory results: US20240108740A1, “THERAPEUTIC COMPOSITIONS INCLUDING SPN10 AND USES THEREOF” (Stealth BioTherapeutics Inc., priority 2022, published 2024)
Residues, ends and D or L forms follow the SMILES beside them.

How the values were obtained:
high-fat fed rats = test: Example 34: insulin resistance in rats fed a high-fat diet; format: in vivo, rat
Experimental: On the day of testing, food will be removed 10 hours prior to administration of a 2 g/kg glucose solution via oral gavage. Glucose levels will be determined on whole blood samples (Lifescan, Milpitas, CA, U.S.A.). Serum insulin levels will be determined using a rat/mouse ELISA kit (Linco Research, St. Charles, MO, U.S.A.). Fasting data will be used to determine homeostatic model assessment (HOMA)-calculated as fasting insulin (mU/mL)×fasting glucose (mM)/22.5.
To further assess insulin sensitivity, the phosphorylation state of the insulin signaling protein Akt in skeletal muscle will be measured 1) following a 10 hour fast, and 2) 1 hour after receiving an oral glucose load. It is anticipated that in response to glucose ingestion, Akt phosphorylation will increase in skeletal muscle of standard chow-fed controls but will remain essentially unchanged in high-fat fed rats, confirming the presence of insulin resistance at the level of insulin signaling.

[1] = tested on: isolated mouse liver mitochondria; test: Example 11: mitochondrial respiration and membrane potential
Experimental: Isolated mouse liver mitochondria will be incubated with 100 pM of SPN10(s) (with or without aromatic-cationic peptides) or peptide conjugates, and oxygen consumption will be measured. […] Mitochondrial membrane potential will be measured using TMRM. It is anticipated that addition of mitochondria will result in immediate quenching of the TMRM signal, which will be readily reversible by the addition of FCCP, indicating mitochondrial depolarization. It is anticipated that the addition of Ca^2+ (150 μM) will result in immediate mitochondrial depolarization followed by progressive loss of quenching indicative of MPT.

Guinea pig hearts = test: Example 14: ischemia-reperfusion-induced myocardial stunning
Experimental: Guinea pig hearts will be rapidly isolated, and the aorta will be cannulated in situ and perfused in a retrograde fashion with an oxygenated Krebs-Henseleit at constant pressure (40 cm H2O). Contractile force will be measured with a small hook inserted into the apex of the left ventricle and a silk ligature connected to a force-displacement transducer. Coronary flow will be measured by timing the collection of pulmonary artery effluent.
Hearts will be perfused with peptide conjugates (1-100 nM); aromatic-cationic peptides (an equivalent molar dose of aromatic-cationic peptide based on the concentration of the aromatic-cationic peptide administered in the peptide conjugate treatment group); SPN10(s) (an equivalent molar dose of SPN10 based on the concentration of SPN10 administered in the peptide conjugate treatment group); or SPN10(s) in combination with aromatic-cationic peptides (e.g., an equivalent molar dose of SPN10 based on the concentration of SPN10 administered in the peptide conjugate treatment group and an equivalent molar dose of aromatic-cationic peptide based on the concentration of aromatic-cationic peptide administered in the peptide conjugate treatment group) for 30 minutes and then subjected to 30 minutes of global ischemia. Reperfusion will […] be performed using perfusion buffer lacking both peptide conjugates and SPN10(s) (with or without aromatic-cationic peptides).

SH-SY5Y cells = test: Example 27: apoptosis caused by oxidative stress (Hoechst 33342); format: cell-based; conditions: 0.025 mM t-BHP, 24 hours
Experimental: SH-SY5Y cells will be grown in 96-well plates and treated with t-BHP (0.025 mM) alone or in the presence of peptide conjugates, aromatic-cationic peptides, or SPN10(s) with or without aromatic-cationic peptides at 37° C. for 24 hours. All treatments will be carried out in quadruplicate. Cells will then be stained with 2 mg/mL Hoechst 33342 for 20 minutes, fixed with 4% paraformaldehyde, and imaged using a Zeiss fluorescent microscope (Axiovert 200M) equipped with the Zeiss Acroplan 20× objective. Nuclear morphology will be evaluated using an excitation wavelength of […] and a longpass filter of 400 nm for emission. All images will be processed and analyzed using MetaMorph software (Universal Imaging Corp., West Chester, PA, U.S.A.). Uniformly stained nuclei will be scored as healthy, viable neurons. Cells with condensed or fragmented nuclei will be scored as apoptotic.

[2] = tested on: mouse peritoneal macrophages; test: Example 1: oxLDL-induced CD36 expression and foam cell formation; format: cell-based
Experimental: Other controls will include CD36 expression from mouse heart (H) and macrophages obtained from CD36 knockout mice (KO). The amount of CD36 protein will be normalized to β-actin.
Incubation of macrophages with oxLDL for 48 hours is also anticipated to increase foam cell formation. Foam cell will be visualized by oil red O, which stains lipid droplets red.
Incubation of macrophages with oxLDL is anticipated to increase the percentage of apoptotic cells.

Sprague Dawley rats = test: Renal ischemia/reperfusion, no-reflow zone in the kidney; format: in vivo, rat
Hairless mice = test: Example 50: sunburn by excessive UV radiation; format: in vivo, mouse; conditions: intravenously twice per day for seven days
Description: Hairless mice, with skin characteristics similar to humans, will be exposed to excessive UV radiation over the course of a week. […] Parameters measured will include wound contraction, re-epithelialization distance, cellularity, and collagen organization. Ki67 proliferation antigen will be assessed, as well as TUNEL and caspase-3 activation. Blood flow will be measured by […] mapping.

SMILES: N=C(N)NCCC[C@H](NC(=O)[C@@H](N)Cc1c[nH]c2ccccc12)C(=O)N[C@@H](Cc1c[nH]c2ccccc12)C(=O)N[C@@H](CCCCN)C(N)=O [SPN10, H-L-Trp-L-Arg-L-Trp-L-Lys-NH2] (H-WRWK-NH2)
- blood glucose and insulin responses to the oral glucose challenge (high-fat fed rats; 2 g/kg glucose, six weeks high-fat diet): normalize blood glucose and insulin responses
- Akt phosphorylation in skeletal muscle in response to glucose ingestion (high-fat fed rats; rat, in vivo): increase Akt phosphorylation
- development of insulin resistance (HOMA) (high-fat fed rats; rat, in vivo): suppress the development of insulin resistance
- respiratory ratio (state 3/state 4) ([1]; 100 pM): 6.2 versus 6.0
- mitochondrial depolarization or MPT by the compound alone (TMRM) ([1]; even at 200 μM): will not cause mitochondrial depolarization or MPT
- cardiac stunning (Guinea pig hearts): complete inhibition of cardiac stunning
- coronary flow during reperfusion (Guinea pig hearts): well-sustained throughout the reperfusion period
- heart rate (Guinea pig hearts): no decrease in heart rate
- contractile force during the reperfusion period (Guinea pig hearts; 30 minutes perfusion, 30 minutes global ischemia): improved compared to untreated controls
- apoptosis induced by t-BHP (SH-SY5Y cells): prevent SH-SY5Y cell apoptosis
- percentage of apoptotic cells induced by oxLDL [2]: significantly reduce the percentage of apoptotic cells
- up-regulation of CD36 protein levels by oxLDL ([2]; 25 μg/mL oxLDL, 48 hours): significantly inhibit the up-regulation of CD36 protein levels
- CD36 protein levels (western blot) ([2]; compared to vehicle control (V)): significantly reduce CD36 protein levels
- oxLDL-induced up-regulation of CD36 mRNA ([2]; oxLDL 50 μg/mL, 48 hours): abolish the up-regulation of CD36
- oxLDL-induced foam cell formation (oil red O) ([2]; oxLDL, 48 hours): prevent oxLDL-induced foam cell formation
- anatomic zone of no-reflow in the kidney (Sprague Dawley rats; 30 minutes before ischemia and before reperfusion): prevent or reduce
- one or more of BUN, serum creatinine, and glomerular filtration rate (Sprague Dawley rats; versus untreated control subjects): improve
- wound healing and progression of sunburn injuries (Hairless mice): accelerate wound healing and attenuate the progression of sunburn injuries
